Source: patent US10239838B2, “Heteroaryl orexin receptor antagonists” (Merck Sharp & Dohme Corp., priority 2014, dated 2019)

What was measured:
[1] = target: human orexin-2 receptor (Homo sapiens (Human), UniProt O43614); experiment: FLIPR Ca2+ Flux Assay, orexin-2 receptor; assay type: cell-based; conditions: CHO cells expressing the human orexin-2 receptor; agonist 70 pM Ala-6,12 orexin-A; read-out: hOX2R FLIPR IC50
Experimental: In a typical experiment the OX1 and OX2 receptor antagonistic activity of the compounds of the present invention was determined in accordance with the following experimental method. For intracellular calcium measurements, Chinese hamster ovary (CHO) cells expressing the rat orexin-1 receptor or the human orexin-2 receptor, are grown in Iscove's modified DMEM containing 2 mM L-glutamine, […], 1% hypoxanthine-thymidine supplement, 100 U/ml penicillin, 100 μg/ml streptomycin and 10% heat-inactivated fetal calf serum (FCS). The cells are seeded at 20,000 cells/well into Becton-Dickinson black 384-well clear bottom sterile plates coated with poly-D-lysine. All reagents were from GIBCO-Invitrogen Corp. The seeded plates are incubated overnight at 37° C. and 5% CO2. Ala-6,12 human orexin-A as the agonist is prepared as a 1 mM stock solution in 1% bovine serum albumin (BSA) and diluted in assay buffer (HBSS containing 20 mM HEPES, 0.1% BSA and 2.5 mM probenecid, pH7.4) for use in the assay at a final concentration of 70 pM. Test compounds are prepared as 10 mM stock solution in DMSO, then diluted in 384-well plates, first in DMSO, then assay buffer. On the day of the assay, cells are washed 3 times with 100 μl assay buffer and then incubated for 60 min (37° C., 5% CO2) in 60 μl assay buffer containing 1 μM Fluo-4 AM ester, 0.02% pluronic acid, and 1% BSA. The dye loading solution is then aspirated and cells are washed 3 times with 100 μl assay buffer. 30 μl of that same buffer is left in each well. Within the Fluorescent Imaging Plate Reader (FLIPR, Molecular Devices), test compounds are added to the plate in a volume of 25 μl, incubated for 5 min and finally 25 μl of agonist is added. Fluorescence is measured for each well at 1 second intervals for 5 minutes and the height of each fluorescence peak is compared to the height of the fluorescence peak induced by 70 pM Ala-6,12 orexin-A with buffer in place of antagonist. […] Alternatively, compound potency can be assessed by a radioligand binding assay (described in Bergman et. al. Bioorg. Med. Chem. Lett. 2008, 18, 1425-1430) in which the inhibition constant (Ki) is determined in membranes prepared from CHO cells expressing either the OX1 or OX2 receptor. The intrinsic orexin receptor antagonist activity of a compound which may be used in the present invention may be determined by these assays.

[2] = target: hOX1R (Homo sapiens, UniProt O43613); experiment: FLIPR Ca2+ Flux Assay, orexin-1 receptor; assay type: cell-based; conditions: CHO cells expressing orexin-1 receptor; agonist 70 pM Ala-6,12 orexin-A

Sequence of human orexin-2 receptor (O43614 whole entry): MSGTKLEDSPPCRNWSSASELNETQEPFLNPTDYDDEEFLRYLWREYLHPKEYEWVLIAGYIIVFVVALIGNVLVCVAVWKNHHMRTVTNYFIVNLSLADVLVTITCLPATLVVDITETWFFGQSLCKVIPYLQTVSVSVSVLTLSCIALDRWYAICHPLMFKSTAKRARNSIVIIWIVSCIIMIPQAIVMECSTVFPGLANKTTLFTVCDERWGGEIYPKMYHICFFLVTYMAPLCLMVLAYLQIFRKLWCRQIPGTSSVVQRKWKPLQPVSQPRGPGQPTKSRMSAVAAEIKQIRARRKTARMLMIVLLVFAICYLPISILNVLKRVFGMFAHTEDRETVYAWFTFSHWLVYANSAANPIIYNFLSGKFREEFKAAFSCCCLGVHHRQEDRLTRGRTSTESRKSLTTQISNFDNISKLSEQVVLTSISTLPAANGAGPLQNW

SMILES: CCN(CCc1ccc(C(C)(C)O)cn1)C(=O)c1ccccc1CC(F)(F)F [Example 54, N-ethyl-N-{2-[5-(1-hydroxy-1-methylethyl)pyridin-2-yl]ethyl}-2-(2,2,2-trifluoroethyl)benzamide]
- IC50 [1]: 440 nM
- IC50 [2]: > 10 µM

SMILES: CCOc1ncccc1C(=O)N(CC)CCc1cccc(C(C)(C)O)n1 [Example 6, 2-ethoxy-N-ethyl-N-{2-[6-(1-hydroxy-1-methylethyl)pyridin-2-yl]ethyl}pyridine-3-carboxamide]
- IC50 [1]: 206 nM
- IC50 [2]: > 10 µM

SMILES: CCN(CCc1cncc(C(C)(C)O)c1)C(=O)c1ccccc1-n1nccn1 [Example 38, N-Ethyl-N-{2-[5-(1-hydroxy-1-methylethyl)pyridin-3-yl]ethyl}-2-(2H-1,2,3-triazol-2-yl)benzamide]
- IC50 [1]: 152 nM
- IC50 [2]: > 10 µM

SMILES: CCN(CCc1cccc(C(C)(C)O)n1)C(=O)c1ccc(OC)nc1C1CC1 [Example 19, 2-cyclopropyl-N-ethyl-N-(2-(6-(2-hydroxypropan-2-yl)pyridin-2-yl)ethyl)-6-methoxynicotinamide]
- IC50 [1]: 16 nM

SMILES: CCN(CCc1ccc(C(C)(C)O)cn1)C(=O)c1ccccc1OC(F)(F)F [Example 50, N-ethyl-N-{2-[5-(1-hydroxy-1-methylethyl)pyridin-2-yl]ethyl}-2-(trifluoromethoxy)benzamide]
- IC50 [1]: 239 nM
- IC50 [2]: > 10 µM

SMILES: CCN(CCc1ccc(C(C)(C)O)cn1)C(=O)c1cccnc1-c1ccccc1 [Example 58, N-ethyl-N-{2-[5-(1-hydroxy-1-methylethyl)pyridin-2-yl]ethyl}-2-phenylpyridine-3-carboxamide]
- IC50 [1]: 334 nM
- IC50 [2]: > 10 µM

SMILES: CCN(CCc1cccc(C(C)(C)O)n1)C(=O)c1ccccc1-n1nccn1 [Example 4, N-Ethyl-N-{2-[6-(1-hydroxy-1-methylethyl)pyridin-2-yl]ethyl}-2-(2H-1,2,3-triazol-2-yl)benzamide]
- IC50 [1]: 15 nM

SMILES: CCN(CCc1ccc(C(C)(C)O)cn1)C(=O)c1ccccc1C1CC1 [Example 60, 2-cyclopropyl-N-ethyl-N-{2-[5-(1-hydroxy-1-methylethyl)pyridin-2-yl]ethyl}benzamide]
- IC50 [1]: 244 nM
- IC50 [2]: > 10 µM

SMILES: CCN(CCc1cccc(C(C)(C)O)n1)C(=O)c1ccccc1N1CCCC1 [Example 28, N-ethyl-N-(2-(6-(2-hydroxypropan-2-yl)pyridin-2-yl)ethyl)-2-(pyrrolidin-1-yl)benzamide]
- IC50 [1]: 88 nM
- IC50 [2]: > 10 µM

SMILES: CCCc1ccccc1C(=O)N(CC)CCc1ccc(C(C)(C)O)cn1 [Example 52, N-ethyl-N-{2-[5-(1-hydroxy-1-methylethyl)pyridin-2-yl]ethyl}-2-propylbenzamide]
- IC50 [2]: > 10 µM

SMILES: CCN(CCc1ccc(C)c(C(C)(C)O)n1)C(=O)c1ccccc1-n1nccn1 [Example 48, N-Ethyl-N-(2-(6-(2-hydroxypropan-2-yl)-5-methylpyridin-2-yl)ethyl)-2-(2H-1,2,3-triazol-2-yl)benzamide]
- IC50 [1]: 6 nM
- IC50 [2]: 0.791 µM

SMILES: CCN(CCc1ccc(C(C)(C)O)cn1)C(=O)c1cccnc1OCC(F)F [Example 64, 2-(2,2-difluoroethoxy)-N-ethyl-N-{2-[5-(1-hydroxy-1-methylethyl)pyridin-2-yl]ethyl}pyridine-3-carboxamide]
- IC50 [1]: 337 nM
- IC50 [2]: > 10 µM

SMILES: CCN(CCc1cccc(C(C)(C)O)n1)C(=O)c1cccnc1OC(C)C [Example 5, N-Ethyl-N-{2-[6-(1-hydroxy-1-methylethyl)pyridin-2-yl]ethyl}-2-(1-methylethoxy)pyridine-3-carboxamide]
- IC50 [1]: 133 nM
- IC50 [2]: > 10 µM

SMILES: CCN(CCc1nccc(C(C)(C)O)n1)C(=O)c1ccccc1-n1nccn1 [Example 44, N-Ethyl-N-(2-(4-(2-hydroxypropan-2-yl)pyrimidin-2-yl)ethyl)-2-(2H-1,2,3-triazol-2-yl)benzamide]
- IC50 [1]: 58 nM
- IC50 [2]: > 10 µM

SMILES: CCN(CCc1ccc(C(C)(C)O)cn1)C(=O)c1ccc(F)cc1-n1nccn1 [Example 61, N-ethyl-4-fluoro-N-{2-[5-(1-hydroxy-1-methylethyl)pyridin-2-yl]ethyl}-2-(2H-1,2,3-triazol-2-yl)benzamide]
- IC50 [1]: 26 nM
- IC50 [2]: > 10 µM

SMILES: CCN(CCc1ccc(C(C)(C)O)cn1)C(=O)c1ccc(OC)nc1C1CC1 [Example 59, 2-cyclopropyl-N-ethyl-N-{2-[5-(1-hydroxy-1-methylethyl)pyridin-2-yl]ethyl}-6-methoxypyridine-3-carboxamide]
- IC50 [1]: 55 nM
- IC50 [2]: > 10 µM

SMILES: CCN(CCc1ccnc(C(C)(C)O)n1)C(=O)c1ccccc1-n1nccn1 [Example 40, N-Ethyl-N-(2-(2-(2-hydroxypropan-2-yl)pyrimidin-4-yl)ethyl)-2-(2H-1,2,3-triazol-2-yl)benzamide]
- IC50 [1]: 74 nM
- IC50 [2]: > 10 µM

SMILES: CCN(CCc1cnc(C(C)(C)O)cn1)C(=O)c1ccccc1-n1nccn1 [Example 46, N-Ethyl-N-(2-(5-(2-hydroxypropan-2-yl)pyrazin-2-yl)ethyl)-2-(2H-H-1,2,3-triazol-2-yl)benzamide]
- IC50 [1]: 170 nM
- IC50 [2]: > 10 µM

SMILES: CCN(CCc1cc(C(C)(C)O)ccn1)C(=O)c1ccccc1-n1nccn1 [Example 1, N-Ethyl-N-{2-[4-(1-hydroxy-1-methylethyl)pyridin-2-yl]ethyl}-2-(2H-1,2,3-triazol-2-yl)benzamide]
- IC50 [1]: 69 nM
- IC50 [2]: > 10 µM

SMILES: CCN(CCc1cccc(C(C)(C)O)n1)C(=O)c1cccnc1OCC(F)F [Example 9, 2-(2,2-difluoroethoxy)-N-ethyl-N-{2-[6-(1-hydroxy-1-methylethyl)pyridin-2-yl]ethyl}pyridine-3-carboxamide]
- IC50 [1]: 95 nM
- IC50 [2]: > 10 µM

SMILES: CCN(CCc1cccc(C(C)(C)O)n1)C(=O)c1ccccc1C1CC1 [Example 15, 2-cyclopropyl-N-ethyl-N-{2-[6-(1-hydroxy-1-methylethyl)pyridin-2-yl]ethyl}benzamide]
- IC50 [1]: 43 nM
- IC50 [2]: > 10 µM

SMILES: CCN(CCc1ccc(C(C)(C)O)cn1)C(=O)c1cccnc1OCC(F)(F)F [Example 56, N-ethyl-N-{2-[5-(1-hydroxy-1-methylethyl)pyridin-2-yl]ethyl}-2-(2,2,2-trifluoroethoxy)pyridine-3-carboxamide]
- IC50 [1]: 430 nM
- IC50 [2]: > 10 µM

SMILES: CCN(CCc1nccc(C(C)O)n1)C(=O)c1ccccc1-n1nccn1 (stereo not shown) [Example 43, N-Ethyl-N-(2-(4-(1-hydroxyethyl)pyrimidin-2-yl)ethyl)-2-(2H-1,2,3-triazol-2-yl)benzamide]
- IC50 [1]: 165 nM
- IC50 [2]: > 10 µM

SMILES: CCN(CCc1ccc(C(C)(C)O)cn1)C(=O)c1ccccc1C1CC1(F)F (stereo not shown) [Example 63, 2-(2,2-difluorocyclopropyl)-N-ethyl-N-{2-[5-(1-hydroxy-1-methylethyl)pyridin-2-yl]ethyl}benzamide]
- IC50 [1]: 38 nM
- IC50 [2]: > 10 µM

SMILES: CCN(CCc1cccc(C(C)(C)O)n1)C(=O)c1ccccc1-n1cccn1 [Example 12, N-ethyl-N-{2-[6-(1-hydroxy-1-methylethyl)pyridin-2-yl]ethyl}-2-(1H-pyrazol-1-yl)benzamide]
- IC50 [1]: 66 nM
- IC50 [2]: > 10 µM

SMILES: CCN(CCc1cncc(C(C)(C)O)n1)C(=O)c1ccccc1-n1nccn1 [Example 39, N-Ethyl-N-{2-[6-(1-hydroxy-1-methylethyl)pyrazin-2-yl]ethyl}-2-(2H-1,2,3-triazol-2-yl)benzamide]
- IC50 [1]: 68 nM
- IC50 [2]: > 10 µM

SMILES: CCN(CCc1cccc(C(C)(C)O)n1)C(=O)c1ccccc1OC(F)F [Example 7, 2-(difluoromethoxy)-N-ethyl-N-{2-[6-(1-hydroxy-1-methylethyl)pyridin-2-yl]ethyl}benzamide]
- IC50 [1]: 196 nM
- IC50 [2]: > 10 µM

SMILES: CCN(CCc1ccc(C(C)(C)O)cn1)C(=O)c1ccccc1-n1nccn1 [Example 35, N-Ethyl-N-{2-[5-(1-hydroxy-1-methylethyl)pyridin-2-yl]ethyl}-2-(2H-1,2,3-triazol-2-yl)benzamide]
- IC50 [1]: 50 nM
- IC50 [2]: > 10 µM

SMILES: CCN(CCc1cccc(C(C)(C)O)n1)C(=O)c1ccccc1CC(F)(F)F [Example 18, N-ethyl-N-(2-(6-(2-hydroxypropan-2-yl)pyridin-2-yl)ethyl)-2-(2,2,2-trifluoroethyl)benzamide]
- IC50 [2]: > 10 µM

SMILES: CCN(CCc1cccc(C(C)(C)O)n1)C(=O)c1ccccc1C1CCC1 [Example 25, 2-cyclobutyl-N-ethyl-N-(2-(6-(2-hydroxypropan-2-yl)pyridin-2-yl)ethyl)benzamide]
- IC50 [1]: 34 nM
